In patent US20010031865A1, “Substituted 3-phenyluracils” (priority 1991, published 2001):

Tests used:
[1] = test system: young, 4-leaved cotton plants of the Stoneville 825 variety; assay: Defoliation of young cotton plants (Use Example 1); assay type: in vivo; details: after 13 days
Procedure: The comparative agent used was
A 6,7-dihydrodipyrido[1,2-alpha:2′, 1′-c]pyridilium as the dibromide monohydrate salt (common name: Diquat®).
The comparative agent was used in the form-of the preformulated commercial product.
The test plants used were young, 4-leaved cotton plants (without cotyledons) of the Stoneville 825 variety, which were grown under greenhouse conditions (relative humidity from 50 to 70%; day/night temperature 27/20° C.).
The amount of water applied was equivalent to […]. After 13 days, the number of dropped leaves and the degree of defoliation in % were determined.

[2] = test system: undesirable broad-leaved plants and grasses; assay: Greenhouse herbicidal test, postemergence treatment; assay type: in vivo; details: for control of undesirable broad-leaved plants and grasses: postemergence use of 0.5 kg/ha, greenhouse
Procedure: The seeds of the test plants were sown separately according to species. For the purpose of the postemergence treatment, the test plants were grown in the test vessels themselves or were planted in the test vessels a few days beforehand. The active ingredients suspended or emulsified in water were not applied until a height of growth of from 3 to 15 cm, depending on the form of growth. The plants were kept at 10-25° C. or 20-35° C., according to species. The test periods extended over from 2 to 4 weeks. During this time, the plants were tended and their reaction to the individual treatments was evaluated. Rating was based on a scale from 0 to 100. 100 means no emergence of the plants or complete destruction of at least the above-ground parts and 0 means no damage on normal growth. The plants used in the greenhouse experiments consisted of the following species: [table]

[3] = converted application rate 0.10 kg/ha

melting point [°C]	SMILES	control of undesirable broad-leaved plants and grasses [2]	further results
	c1cc[n+]2c(c1)-c1cccc[n+]1CC2 [A, 6,7-dihydrodipyrido[1,2-alpha:2′, 1′-c]pyridilium, reference compound]		Defoliation [1, 3]: 0%
	Cn1c(C(F)(F)F)cc(=O)n(-c2ccc(Cl)c(C=O)c2)c1=O [compound 1.1, 3-(4-Chloro-3-formylphenyl)-2,4-dioxo-1-methyl-6-trifluoromethyl-1,2,3,4-tetrahydropyrimidine]	very readily controlled	
221 to 223	CCO/N=C/c1cc(-n2c(=O)cc(C(F)(F)F)[nH]c2=O)ccc1Cl [compound 1.4, 3-[4-Chloro-3-(ethoximinomethyl)-phenyl]-2,4-dioxo-6-trifluoromethyl-1,2,3,4-tetrahydropyrimidine]		
132 to 134	CCO/N=C/c1cc(-n2c(=O)cc(C(F)(F)F)n(C)c2=O)ccc1Cl [compound 1.5, 3-[4-Chloro-3-(ethoximinomethyl)-phenyl]-2,4-dioxo-1-methyl-6-trifluoromethyl-1,2,3,4-tetrahydropyrimidine]	very readily controlled	
	CCCCOC(=O)/C(Cl)=C/c1cc(-n2c(=O)cc(C(F)(F)F)n(C)c2=O)ccc1Cl [compound 1.15, 3-[4-Chloro-3-(2-chloro-2-butoxycarbonylethen-1-yl)-phenyl]-2,4-dioxo-1-methyl-6-trifluoromethyl-1,2,3,4-tetrahydropyrimidine]	very readily controlled	
	COC(=O)/C(C#N)=C/c1cc(-n2c(=O)cc(C(F)(F)F)n(C)c2=O)ccc1Cl [compound 1.22, 3-[4-Chloro-3-(2-cyano-2-methoxycarbonylethenyl)-phenyl]-2,4-dioxo-1-methyl-6-trifluoromethyl-1,2,3,4-tetrahydropyrimidine]	very readily controlled	
219 to 221	CCOC(=O)N/N=C/c1cc(-n2c(=O)cc(C(F)(F)F)n(C)c2=O)ccc1Cl [compound 1.91, 3-(4-Chloro-3-ethoxycarbonylhydrazonomethylphenyl)-2,4-dioxo-1-methyl-6-trifluoromethyl-1,2,3,4-tetrahydropyrimidine]		
	Cn1c(C(F)(F)F)cc(=O)n(-c2ccc(Cl)c(C3OCCCO3)c2)c1=O [compound 2.1, 3-[4-Chloro-3-(1,3-dioxan-2-yl)-phenyl]-2,4-dioxo-1-methyl-6-trifluoromethyl-1,2,3,4-tetrahydropyrimidine]	very readily controlled	
	COC(=O)/C(Cl)=C/c1cc(-n2c(OC)nc(C(F)(F)F)cc2=O)ccc1Cl [compound 3.1, 3-[4-Chloro-3-(2-chloro-2-methoxycarbonylethenyl)-phenyl]-2-methoxy-4-oxo-6-trifluoromethyl-3,4-dihydro-pyrimidine]		Defoliation ([1]; converted application rate 0.05 kg/ha): 53%; Defoliation [1, 3]: 73%; control of undesirable broad-leaved plants ([2]; postemergence method, application rates of 0.06 and 0.03 kg/ha): very readily controlled
